ChEMBL document CHEMBL5331048, “Recent progress toward developing axial chirality bioactive compounds” (Eur J Med Chem, 2022)
pIC50: −log10 of the molar value. In brackets after ≈: the same amount, converted by molar mass. One block for each molecule: values may come before it.

Legend:
Staphylococcus aureus [1] = test: Antibacterial activity against methicillin-resistant Staphylococcus aureus assessed as bacterial growth inhibition; type: functional
HCT-116 = test: Anticancer activity against human HCT-116 cells assessed as cell growth inhibition; type: functional, cell-based
Streptococcus iniae [2] = test: Antibacterial activity against Streptococcus iniae FP 5228 assessed as bacterial growth inhibition; type: functional
Streptococcus iniae [3] = test: Potency index, ratio of oxytetracycline MIC to test compound MIC for antibacterial activity against Streptococcus iniae FP 5228; type: functional
A-375 = test: Anticancer activity against human A-375 cells assessed as cell growth inhibition measured after 24 hrs by MTT assay; type: functional, cell-based; details: A-375, 24 h
[4] = Anticancer activity against human QGP-1 cells assessed as cell growth inhibition; type: functional, cell-based
Caco-2 = test: Anticancer activity against human Caco-2 cells assessed as cell growth inhibition measured after 72 hrs by MTT assay; type: functional, cell-based; details: Caco-2, 72 h
Bacillus subtilis [5] = test: Antibacterial activity against Bacillus subtilis ATCC 6633 assessed as bacterial growth inhibition; type: functional, organism-based
Staphylococcus aureus [6] = test: Antibacterial activity against Staphylococcus aureus ATCC 25923 assessed as bacterial growth inhibition; type: functional, organism-based
Escherichia coli = test: Antibacterial activity against Escherichia coli ATCC 25922 assessed as bacterial growth inhibition; type: functional
Staphylococcus aureus [7] = test: Antibacterial activity against Staphylococcus aureus ATCC 29213 assessed as bacterial growth inhibition; type: functional
Bacillus subtilis [8] = test: Antibacterial activity against Bacillus subtilis SCSIO BS01 assessed as bacterial growth inhibition; type: functional
Bacillus thuringiensis = test: Antibacterial activity against Bacillus thuringiensis SCSIO BT01 assessed as bacterial growth inhibition; type: functional
Plasmodium falciparum = test: Antimalarial activity against Plasmodium falciparum NF 54 clone A1A9 assessed as reduction in parasite growth measured after 24 hrs by 3[H]-hypoxanthine incorporation assay; type: functional, organism-based; details: NF 54 clone A1A9, 24 h
Plasmodium berghei [9] = test: Antimalarial activity against Plasmodium berghei ANKA assessed as reduction in parasite growth measured after 24 hrs by 3[H]-hypoxanthine incorporation assay; type: functional, organism-based
Plasmodium berghei [10] = test: Antimalarial activity against Plasmodium berghei assessed as reduction in parasite growth; type: functional, organism-based
HGC-27 = test: Anticancer activity against human HGC-27 cells assessed as cell growth inhibition measured after 24 hrs by CCK-8 assay; type: functional, cell-based; details: HGC-27, 24 h
[11] = Anticancer activity against human Leucocyte assessed as cell break at 2 x 10^-9M measured after 12 hrs; type: functional; details: dose 2 10^-9M

SMILES: O=C(c1ccccc1O)c1[nH]c(Cl)c(Cl)c1-n1c(C(=O)c2ccccc2O)cc(Cl)c1Cl
MIC90 (Staphylococcus aureus [1]): 0.61 µM (≈ 0.311 µg/mL)
pIC50 (HCT-116): 5.06

SMILES: COC(=O)C[C@@H]1Cc2cc3c(-c4c(OC)cc(O)c5c(O)c6c(cc45)C[C@@H](CC(=O)OC)OC6=O)c(OC)cc(O)c3c(O)c2C(=O)O1
MIC (Streptococcus iniae [2]): 0.31 µg/mL (≈ 0.468 µM)
Ratio (Streptococcus iniae [3]): 100

pIC50 (A-375): 5.59
SMILES: COc1ccc2ccc(O)c(-c3c(Br)c(C4CC4)nn3P(=O)(c3ccccc3)c3ccccc3)c2c1

SMILES: O=C(c1ccccc1O)c1[nH]c(Cl)c(Cl)c1-n1c(Cl)c(Cl)c(Br)c1C(=O)c1ccccc1O
MIC90 (Staphylococcus aureus [1]): 1.1 µM (≈ 0.648 µg/mL)
pIC50 (HCT-116): 5.05

SMILES: COC(=O)c1cc(-c2ccc(F)cc2)n(-n2c(C(=O)OC)cc3ccccc32)c1C
IC50 [4]: 18.7 µg/mL (≈ 46.1 µM)

SMILES: COC(=O)c1cc(-c2cccc(OC)c2)n(-n2c(-c3ccc4ccccc4c3)cc(C(=O)OC)c2C)c1C
IC50 [4]: 18.7 µg/mL (≈ 36.8 µM)

pIC50 (Caco-2): 4.12
SMILES: O=C1N[C@@H]2[C@H]3NC(=O)[C@@H]4Cc5cc6ccccc6n5-n5cc(c6ccccc65)C[C@@H]1N[C@H]2[C@@H]3N4

SMILES: COC(=O)c1cc(-c2ccccc2)n(-n2c(-c3ccc4c(c3)OCO4)cc(C(=O)OC)c2C)c1C
IC50 [4]: 18.7 µg/mL (≈ 39.6 µM)

SMILES: COC(=O)[C@@]12Oc3cc(C)c(-c4c(C)cc5c(c4O)C(=O)C4C(O)=CC[C@@H](O)[C@]4(C(=O)OC)O5)c(O)c3C(=O)C1=C(O)CC[C@H]2O (stereo in doubt; 4)
pIC50 (Bacillus subtilis [5]): 5.68
pIC50 (Staphylococcus aureus [6]): 5.22

SMILES: COC(=O)[C@@]12Oc3cc(C)c(-c4c(C)cc5c(c4O)C(=O)C4C(O)=CC[C@@H](O)[C@]4(C(=O)OC)O5)c(O)c3C(=O)C1=C(O)CC[C@H]2O (stereo in doubt; 5)
pIC50 (Bacillus subtilis [5]): 6.15
pIC50 (Staphylococcus aureus [6]): 4.74

MIC (Escherichia coli; Escherichia coli, ATCC 25922, read-out: MIC): 8 µg/mL (≈ 11 µM)
MIC (Staphylococcus aureus [7]; Staphylococcus aureus, ATCC 29213, read-out: MIC): 8 µg/mL (≈ 11 µM)
MIC (Bacillus subtilis [8]; Bacillus subtilis, SCSIO BS01, read-out: MIC): 16 µg/mL (≈ 22.1 µM)
MIC (Bacillus thuringiensis; Bacillus thuringiensis, SCSIO BT01, read-out: MIC): 4 µg/mL (≈ 5.52 µM)
SMILES: C[C@@]1(C(=O)O)[C@@H](O)CC[C@]2(C)c3cc4c5ccccc5n(-n5c6ccccc6c6cc7c(cc65)CC[C@H]5[C@](C)(C(=O)O)[C@@H](O)CC[C@]75C)c4cc3CC[C@@H]12 (stereo in doubt; 66)

MIC (Escherichia coli): 8 µg/mL (≈ 11 µM)
MIC (Staphylococcus aureus [7]): 16 µg/mL (≈ 22.1 µM)
MIC (Bacillus subtilis [8]): 16 µg/mL (≈ 22.1 µM)
MIC (Bacillus thuringiensis): 8 µg/mL (≈ 11 µM)
SMILES: C[C@@]1(C(=O)O)[C@@H](O)CC[C@]2(C)c3cc4c5ccccc5n(-n5c6ccccc6c6cc7c(cc65)CC[C@H]5[C@](C)(C(=O)O)[C@@H](O)CC[C@]75C)c4cc3CC[C@@H]12 (stereo in doubt; 67)

SMILES: COc1cc(C)c(-c2ccc(O)c3c2C[C@@H](C)N[C@@H]3C)c2cccc(O)c12 [DIONCOPHYLLINE C]
IC50 (Plasmodium falciparum): 0.014 µg/mL (≈ 0.0385 µM)
IC50 (Plasmodium berghei [9]): 0.015 µg/mL (≈ 0.0413 µM)

SMILES: COc1cc(C)cc2c(-c3c(O)cc(O)c4c3C[C@@H](C)N[C@@H]4C)ccc(O)c12 [KORUPENSAMINE A]
IC50 (Plasmodium berghei [10]): 0.56 µg/mL (≈ 1.48 µM)

MIC (Streptococcus iniae [2]): 40 µg/mL (≈ 86.9 µM)
SMILES: CN(C)[C@@H]1C(O)=C(C(N)=O)C(=O)[C@@]2(O)C(O)=C3C(=O)c4c(O)cccc4[C@@](C)(O)[C@H]3[C@H](O)[C@@H]12 [OXYTETRACYCLINE]

SMILES: c1ccc(C(OCCN2CCCCC2)c2ccccc2)cc1 [PERASTINE]
pIC50 (HGC-27): 4.84

SMILES: COC1=C(N)C(=O)c2nc(-c3nc(C(=O)O)c(C)c(-c4ccc(OC)c(OC)c4O)c3N)ccc2C1=O [STREPTONIGRIN]
Activity [11]: 2.82
